In ChEMBL document CHEMBL1201862, “PubChem BioAssay data set” (2004):
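Step 1: Grow cells in 96-well plates. Step 2: Expose to compound for 48 hours at 5 concentrations. Step 3: Interpolate endpoints linearly; if unreached, use highest concentration. GI50: concentration for 50% inhibition of growth.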 Active and inactive are the calls of the source. Rule as the data show it: active = GI50 up to about 1.1 µM and inactive = higher.

Columns and labels:
Experiment in all cases: NCI-60 cell line screen, 48 h
DMS-114 = tested on: DMS-114
DLD-1 = tested on: DLD-1
LOX IMVI = tested on: LOX IMVI
KM12 = tested on: KM12
A549 = tested on: A549
XF498 = tested on: XF498
UACC-62 = tested on: UACC-62
SNB-19 = tested on: SNB-19
HCC 2998 = tested on: HCC 2998
COLO 205 = tested on: COLO 205
ACHN = tested on: ACHN
K562 = tested on: K562
UO-31 = tested on: UO-31
TK-10 = tested on: TK-10
NCI-H23 = tested on: NCI-H23
SW-620 = tested on: SW-620
SN12C = tested on: SN12C
HOP-92 = tested on: HOP-92
SNB-78 = tested on: SNB-78
M14 = tested on: M14
HT-29 = tested on: HT-29
A498 = tested on: A498
KM-20L2 = tested on: KM-20L2
OVCAR-8 = tested on: OVCAR-8
CCRF-CEM = tested on: CCRF-CEM
OVCAR-5 = tested on: OVCAR-5
SNB-75 = tested on: SNB-75
SF-268 = tested on: SF-268
SK-MEL-2 = tested on: SK-MEL-2
786-0 = tested on: 786-0
EKVX = tested on: EKVX
HOP-62 = tested on: HOP-62
LXFL 529 = tested on: LXFL 529
SK-OV-3 = tested on: SK-OV-3
DMS-273 = tested on: DMS-273
RXF 393 = tested on: RXF 393
NCI-H226 = tested on: NCI-H226
SR = tested on: SR
Malme-3M = tested on: Malme-3M
NCI-H522 = tested on: NCI-H522
HL-60 = tested on: HL-60
MOLT-4 = tested on: MOLT-4
UACC-257 = tested on: UACC-257
U-251 = tested on: U-251
OVCAR-3 = tested on: OVCAR-3
SF-539 = tested on: SF-539
SF-295 = tested on: SF-295
SK-MEL-28 = tested on: SK-MEL-28
RPMI-8226 = tested on: RPMI-8226
HCT-116 = tested on: HCT-116
M19-MEL = tested on: M19-MEL
NCI-H460 = tested on: NCI-H460
OVCAR-4 = tested on: OVCAR-4
IGROV-1 = tested on: IGROV-1
HCT-15 = tested on: HCT-15
SK-MEL-5 = tested on: SK-MEL-5
CAKI-1 = tested on: CAKI-1

ON1CCc2c([nH]c3ccccc23)C1c1ccc(Cl)cc1 (stereo not given)
GI50 (DMS-114): 19.4 µM (inactive)
GI50 (DLD-1): 25.2 µM (inactive)
GI50 (LOX IMVI): 18.8 µM (inactive)
GI50 (KM12): 27.5 µM (inactive)
GI50 (A549): 30 µM (inactive)
GI50 (XF498): 22.6 µM (inactive)
GI50 (UACC-62): 31 µM (inactive)
GI50 (SNB-19): 29 µM (inactive)
GI50 (HCC 2998): 23.8 µM (inactive)
GI50 (COLO 205): 32.9 µM (inactive)
GI50 (ACHN): 31 µM (inactive)
GI50 (K562): 18.2 µM (inactive)
GI50 (UO-31): 25.8 µM (inactive)
GI50 (TK-10): 43.9 µM (inactive)
GI50 (NCI-H23): 21.9 µM (inactive)
GI50 (SW-620): 33.2 µM (inactive)
GI50 (SN12C): 26.1 µM (inactive)
GI50 (HOP-92): 16.8 µM (inactive)
GI50 (SNB-78): 33 µM (inactive)
GI50 (M14): 42.7 µM (inactive)
GI50 (HT-29): 17 µM (inactive)
GI50 (A498): 33.1 µM (inactive)
GI50 (KM-20L2): 21.7 µM (inactive)
GI50 (OVCAR-8): 32.4 µM (inactive)
GI50 (CCRF-CEM): 18.2 µM (inactive)
GI50 (OVCAR-5): 31.3 µM (inactive)
GI50 (SNB-75): 30.3 µM (inactive)
GI50 (SF-268): 33 µM (inactive)
GI50 (SK-MEL-2): 23.1 µM (inactive)
GI50 (786-0): 32.1 µM (inactive)
GI50 (EKVX): 35.8 µM (inactive)
GI50 (HOP-62): 76.4 µM (inactive)
GI50 (LXFL 529): 24 µM (inactive)
GI50 (SK-OV-3): 46.7 µM (inactive)
GI50 (DMS-273): 31.3 µM (inactive)
GI50 (RXF 393): 22.1 µM (inactive)
GI50 (NCI-H226): 20.3 µM (inactive)
GI50 (SR): 20.3 µM (inactive)
GI50 (Malme-3M): 29.4 µM (inactive)
GI50 (NCI-H522): 28.1 µM (inactive)
GI50 (HL-60): 25.9 µM (inactive)
GI50 (MOLT-4): 21.4 µM (inactive)
GI50 (UACC-257): 30.1 µM (inactive)
GI50 (U-251): 15.2 µM (inactive)
GI50 (OVCAR-3): 27.4 µM (inactive)
GI50 (SF-539): 30.5 µM (inactive)
GI50 (SF-295): 27.7 µM (inactive)
GI50 (SK-MEL-28): 36.4 µM (inactive)
GI50 (RPMI-8226): 29.6 µM (inactive)
GI50 (HCT-116): 0.384 µM (active)
GI50 (M19-MEL): 36.8 µM (inactive)

O=C(N/N=C(\C1=Nc2ccc(Cl)cc2NC1O)C(O)/C=C/c1ccccc1)c1ccncc1 (stereo not given)
GI50 (DMS-114): > 100 µM (inactive)
GI50 (DLD-1): > 100 µM (inactive)
GI50 (LOX IMVI): > 100 µM (inactive)
GI50 (KM12): > 100 µM (inactive)
GI50 (A549): > 100 µM (inactive)
GI50 (XF498): > 100 µM (inactive)
GI50 (UACC-62): > 100 µM (inactive)
GI50 (SNB-19): > 100 µM (inactive)
GI50 (HCC 2998): > 100 µM (inactive)
GI50 (COLO 205): > 100 µM (inactive)
GI50 (ACHN): > 100 µM (inactive)
GI50 (K562): > 100 µM (inactive)
GI50 (UO-31): 30.8 µM (inactive)
GI50 (TK-10): > 100 µM (inactive)
GI50 (NCI-H460): > 100 µM (inactive)
GI50 (NCI-H23): > 100 µM (inactive)
GI50 (SW-620): > 100 µM (inactive)
GI50 (SN12C): > 100 µM (inactive)
GI50 (HOP-92): 54.5 µM (inactive)
GI50 (OVCAR-4): > 100 µM (inactive)
GI50 (SNB-78): > 100 µM (inactive)
GI50 (M14): > 100 µM (inactive)
GI50 (HT-29): > 100 µM (inactive)
GI50 (IGROV-1): > 100 µM (inactive)
GI50 (KM-20L2): > 100 µM (inactive)
GI50 (OVCAR-8): > 100 µM (inactive)
GI50 (CCRF-CEM): > 100 µM (inactive)
GI50 (OVCAR-5): > 100 µM (inactive)
GI50 (SNB-75): > 100 µM (inactive)
GI50 (SF-268): > 100 µM (inactive)
GI50 (786-0): > 100 µM (inactive)
GI50 (HOP-62): > 100 µM (inactive)
GI50 (LXFL 529): > 100 µM (inactive)
GI50 (SK-OV-3): > 100 µM (inactive)
GI50 (HCT-15): > 100 µM
GI50 (SK-MEL-5): > 100 µM (inactive)
GI50 (DMS-273): > 100 µM (inactive)
GI50 (RXF 393): > 100 µM (inactive)
GI50 (CAKI-1): > 100 µM (inactive)
GI50 (NCI-H226): > 100 µM (inactive)
GI50 (SR): > 100 µM (inactive)
GI50 (Malme-3M): > 100 µM (inactive)
GI50 (NCI-H522): > 100 µM (inactive)
GI50 (HL-60): > 100 µM (inactive)
GI50 (MOLT-4): > 100 µM (inactive)
GI50 (UACC-257): > 100 µM (inactive)
GI50 (U-251): > 100 µM (inactive)
GI50 (OVCAR-3): > 100 µM (inactive)
GI50 (SF-539): > 100 µM (inactive)
GI50 (SF-295): > 100 µM (inactive)
GI50 (SK-MEL-28): > 100 µM (inactive)
GI50 (RPMI-8226): > 100 µM (inactive)
GI50 (HCT-116): > 100 µM (inactive)
GI50 (M19-MEL): > 100 µM (inactive)
